According to US6773803B2, “Far-infrared emission powder with antibacterial activity and bio-wave steel plate coated with resin containing same” (Posco, priority 2000, dated 2004):

Assay: pH of aqueous solution after adding 30 g powder to 100 g water
Assay type: physicochemical
Conditions: powder dissolved in distilled water, result in words
Experimental: After the addition of the alkaline oxides or hydroxides, the aqueous solutions were measured for pH and the results are given in Table 1.

Influence on the pH of the distilled water, no influence on the pH:
[O]=[Ti]=[O] [Material No. C. 1, TiO2]
[O]=[Al][O][Al]=[O] [Material No. C. 2, Al2O3]
O=[Si]=O [Material No. C. 3, SiO2]
